The values below come from paper PMC10787893, “Expression and characterization of the new antimicrobial peptide AP138L-arg26 anti Staphylococcus aureus” (Applied Microbiology and Biotechnology, 2024).

Molecules are shown by their SMILES. In brackets after ≈: the same amount, converted by molar mass. Where a name gives a salt, the structure may show the parent alone. Read-outs that look alike come from different tables or passages of the source.

Experiment [1] deals with S. aureus CVCC 546. The following applies: for FIC: FIC = MICc/MICa; for MICa: MIC of peptide/antibiotic alone, three parallel experiments.
Method: The synergistic effects of AP138L-arg26 with different antibiotics were evaluated using a checkerboard assay. The synergistic effect was calculated using the FICI as follows: FICI = FIC of AP138L-arg26 + FIC of antibiotic; FIC = MICc/MICa, where MICc is the MIC of the peptide and antibiotic in combination, and MICa is the MIC of the peptide/antibiotic alone (Blier et al. [2010]). Three parallel experiments were performed for each group. The efficacy of combination therapy was defined as FICI ≤ 0.5, 0.5 < FICI ≤ 1, 1 < FICI ≤ 4, and FICI > 4 indicating synergy, addition, no difference, and antagonism, respectively.
Experiment [2] has as its system S. aureus CVCC 546. The experiment can be described thus: Growth curve of S. aureus. Type of experiment: cell-based, Staphylococcus aureus. Particulars: AP138L-arg26 8 µg/mL (2 × MIC), ceftiofur sodium 0.25 µg/mL (1/8 MIC), alone or combined; 1 × 10^5 CFU/mL. The protocol: Samples were taken during the logarithmic growth of S. aureus and diluted to 1 × 10^5 CFU/mL (Delpech et al. [2019]). Different concentrations of AP138L-arg26, ceftiofur sodium, or a combination of them with an equal volume of bacteria were added to a 96-well microplate. The growth curves were recorded using a fully automatic growth curve recording instrument.

The test system of experiment [3] is Streptococcus dysgalactiae CVCC 3938. Briefly: MIC and MBC, broth microdilution. It counts as cell-based. Particulars: Streptococcus dysgalactiae, CVCC3938. The protocol:
(§1) To determine the MIC values of AP138L-arg26, we used the broth microdilution technique as previously described (Andrews. [2001]; Wiegand et al. [2008]). In brief, AP138L-arg26 peptide were diluted from 1280 to 2.5 µg/mL and added to a 96-cells plate with 10 µL per well. The bacteria in the logarithmic stage were diluted to 10^5 CFU/mL with 90 µL per well. […] The MBC method was also based on the CLSI 2021 guidelines.
On the technique in general: Dilution methods test growth across graded concentrations, often in twofold steps.

For experiment [4], the system named is Staphylococcus epidermidis ATCC 35984. The experiment can be described thus: MIC and MBC, broth microdilution. Type of experiment: cell-based. The following applies: Staphylococcus epidermidis, ATCC35984. As for the experimental part: as §1
The test system of experiment [5] is Staphylococcus aureus E48. The experiment can be described thus: MIC and MBC, broth microdilution. The following applies: Staphylococcus aureus, E48. It counts as cell-based. As for the experimental part: as §1
In experiment [6] the test system is Streptococcus agalactiae CAU-FRI-2022-01. The experiment can be described thus: MIC and MBC, broth microdilution. It counts as cell-based. Particulars: Streptococcus agalactiae, CAUFRI202201. The protocol:
as §1

For experiment [7], the system named is Staphylococcus aureus CVCC 546. The experiment can be described thus: MIC and MBC, broth microdilution. Type of experiment: cell-based. The following applies: Staphylococcus aureus, CVCC546. The protocol:
as §1

Experiment [8] deals with Staphylococcus aureus CAAS-FRI-2023-02. Briefly: MIC and MBC, broth microdilution. It counts as cell-based. The following applies: Staphylococcus aureus. As for the experimental part:
as §1

Experiment [9] has as its system Staphylococcus aureus CAAS-FRI-2023-01. The experiment can be described thus: MIC and MBC, broth microdilution. It counts as cell-based. Particulars: Staphylococcus aureus. As for the experimental part: as §1
Experiment [10] concerns Staphylococcus epidermidis ATCC 12228. The experiment can be described thus: MIC and MBC, broth microdilution. It counts as cell-based. The following applies: Staphylococcus epidermidis, ATCC12228. The protocol:
as §1

Experiment [11] deals with Streptococcus agalactiae ATCC 13813. The experiment can be described thus: MIC and MBC, broth microdilution. Type of experiment: cell-based. Particulars: Streptococcus agalactiae, ATCC13813. The protocol: as §1
Experiment [12] concerns Staphylococcus aureus ATCC 25923. The experiment can be described thus: MIC and MBC, broth microdilution. It counts as cell-based. The following applies: Staphylococcus aureus, ATCC25923. The protocol:
as §1

Experiment [13] concerns Streptococcus agalactiae CAU-FRI-2022-02. The experiment can be described thus: MIC and MBC, broth microdilution. It counts as cell-based. The following applies: Streptococcus agalactiae, CAUFRI202202. As for the experimental part: as §1
Experiment [14] relates to Staphylococcus aureus ATCC 43300. The experiment can be described thus: MIC and MBC, broth microdilution. Type of experiment: cell-based. The following applies: Staphylococcus aureus, ATCC43300. As for the experimental part: as §1
A further experiment concerns S. aureus ATCC 43300. Briefly: Post-antibiotic effect (PAE) assay. Type of experiment: cell-based, Staphylococcus aureus. Particulars: PAE = T − C. The text has this: The method of PAE of AP138L-arg26 against MRSA ATCC 43300 or S. aureus CVCC 546 was described previously (Wang et al. [2018]). The formula is PAE = T − C (T is the time required for the number of colonies in the sample treatment group to increase by tenfold, and C is the time required for the untreated group).

Setting [15] is: 99.99% of bacteria killed, plated on MHA, read-out: MBC.
Where [16] appears, read: broth microdilution, 10^5 CFU/mL, 37 °C, 18 h, read-out: MIC.

For the compound `CO/N=C(\C(=O)N[C@@H]1C(=O)N2C(C(=O)[O-])=C(CSC(=O)c3ccco3)CS[C@H]12)c1csc(N)n1.[Na+]` [Ceftiofur sodium, ceftiofur sodium], in the experiment with S. aureus CVCC 546 [1] (combination AP138L-arg26-ceftiofur sodium), the FIC is reported as 0.25. In addition, the MICc in the experiment with S. aureus CVCC 546 [1] (in combination AP138L-arg26-ceftiofur sodium) came out at 0.25 µg/mL. Moreover, the “effect on the growth of S. aureus CVCC 546” value in the experiment with S. aureus CVCC 546 [2] is “little effect on the growth”.

In general, MBC refers to the smallest concentration meeting the test's criterion for killing. The MIC is the least concentration at which growth counts as inhibited. Consider `CN[C@H](CC(C)C)C(=O)N[C@H]1C(=O)N[C@@H](CC(N)=O)C(=O)N[C@H]2C(=O)N[C@H]3C(=O)N[C@H](C(=O)N[C@H](C(=O)O)c4cc(O)cc(O)c4-c4cc3ccc4O)[C@H](O)c3ccc(c(Cl)c3)Oc3cc2cc(c3O[C@@H]2O[C@H](CO)[C@@H](O)[C@H](O)[C@H]2O[C@H]2C[C@](C)(N)[C@H](O)[C@H](C)O2)Oc2ccc(cc2Cl)[C@H]1O` [vancomycin, reference compound], for which, in the experiment with S. aureus CVCC 546 [1], the MICa came to 1 µg/mL. Further, the minimal bactericidal concentration (MBC) in [3] (setting [15]) amounted to 2 µg/mL (≈ 1.38 µM); in [4] (setting [15]) it was 4 µg/mL (≈ 2.76 µM); in experiment [5] (setting [15]) it was 8 µg/mL (≈ 5.52 µM); in [6] (setting [15]), 8 µg/mL (≈ 5.52 µM); in experiment [7] (setting [15]), 1 µg/mL (≈ 0.69 µM); in [8] (setting [15]), 8 µg/mL (≈ 5.52 µM). Moreover, the MBC worked out at 2 µg/mL (≈ 1.38 µM) in experiment [9] (setting [15]); 4 µg/mL (≈ 2.76 µM) in [10] (setting [15]); 4 µg/mL (≈ 2.76 µM) in [11] (setting [15]); 2 µg/mL (≈ 1.38 µM) in [12] (setting [15]); 4 µg/mL (≈ 2.76 µM) in experiment [13] (setting [15]); 1 µg/mL (≈ 0.69 µM) in experiment [14] (setting [15]). Moreover, the MIC in experiment [3] (setting [16]) is 2 µg/mL (≈ 1.38 µM); in experiment [4] (setting [16]), 2 µg/mL (≈ 1.38 µM); in [5] (setting [16]), 1 µg/mL (≈ 0.69 µM); in experiment [6] (setting [16]), 2 µg/mL (≈ 1.38 µM); in experiment [7] (setting [16]), 1 µg/mL (≈ 0.69 µM); in experiment [8] (setting [16]), 2 µg/mL (≈ 1.38 µM). Further, the minimal inhibitory concentration (MIC) in experiment [9] (setting [16]) came to 1 µg/mL (≈ 0.69 µM); in experiment [10] (setting [16]) it was 2 µg/mL (≈ 1.38 µM); in [11] (setting [16]) it was 2 µg/mL (≈ 1.38 µM); in experiment [12] (setting [16]), 1 µg/mL (≈ 0.69 µM); in [13] (setting [16]) it was 2 µg/mL (≈ 1.38 µM); in [14] (setting [16]), 1 µg/mL (≈ 0.69 µM). Besides, the PAE was 0.27 h in the experiment with S. aureus ATCC 43300 (1 × MIC), 0.45 h in the experiment with S. aureus ATCC 43300 (2 × MIC) and 1.18 h in the experiment on S. aureus ATCC 43300 (4 × MIC).

Consider `CC1(C)S[C@@H]2[C@H](NC(=O)[C@H](N)c3ccccc3)C(=O)N2[C@H]1C(=O)O` [Ampicillin], for which the FIC in the experiment with S. aureus CVCC 546 [1] (combination AP138L-arg26-ampicillin) is listed as 0.0625. Also, the MICc in the experiment with S. aureus CVCC 546 [1] (in combination AP138L-arg26-ampicillin) is recorded as 0.0078 µg/mL.

As to `[H]/N=C(/N)N[C@H]1[C@H](O)[C@@H](O)[C@H](O[C@@H]2O[C@@H](C)[C@](O)(C=O)[C@H]2O[C@@H]2O[C@@H](CO)[C@H](O)[C@@H](O)[C@@H]2NC)[C@@H](N/C(N)=N\[H])[C@@H]1O` [Streptomycin sulfate], in the experiment with S. aureus CVCC 546 [1] (combination AP138L-arg26-Streptomycin sulfate), the FIC is reported as 0.5. The MICa in the experiment on S. aureus CVCC 546 [1] was determined as 1 µg/mL. The MICc in the experiment on S. aureus CVCC 546 [1] (in combination AP138L-arg26-Streptomycin sulfate) amounted to 0.5 µg/mL.
